The subject of the assay is DOHH2 cells. Put plainly: Cell proliferation assay (MTS) in DOHH2 cells, mechanism-based assay for BTK inhibition. Conditions: Homo sapiens, DOHH-2, 120 h incubation, 5000 cells/well. The essentials:
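DOHH2 cells (5000/well) were plated in RPMI-1640 with 10% FBS, left overnight, then exposed 120 h at 37° C, 5% CO2 to compound at 1.5–10000 nM final (nine levels). Proliferation was read by MTS, incubated exactly 2 h and stopped with SDS, as a measure of cellular BTK inhibition.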
Usually IC50 stands for the concentration that inhibits the measured activity by half. Read a high IC50 as weaker potency in that assay. Compound `Nc1n[nH]c(=O)c2c([C@@H]3CCN(C(=O)/C=C/[C@H]4CCN4)C3)cn(-c3ccc(Oc4ccccc4)cc3)c12` [Example 97, 7-amino-3-((S)-1-((E)-3-((R)-azetidin-2-yl)acryloyl)pyrrolidin-3-yl)-1-(4-phenoxyphenyl)-1,5-dihydro-4H-pyrrolo[2,3-d]pyridazin-4-one] registered an IC50 of 701 nM. Next, `COC/C=C/C(=O)N1CCC[C@@H](c2cn(-c3ccc(Oc4ccccc4)cc3)c3c(N)n[nH]c(=O)c23)C1` [Example 101, (S,E)-7-amino-3-(1-(4-methoxybut-2-enoyl)piperidin-3-yl)-1-(4-phenoxyphenyl)-1,5-dihydro-4H-pyrrolo[2,3-d]pyridazin-4-one]: 208 nM; `COC/C=C/C(=O)N1CCC[C@@H](c2cn(-c3ccc(Oc4ccccc4F)cc3)c3c(N)n[nH]c(=O)c23)C1` [Example 102, (S,E)-7-amino-1-(4-(2-fluorophenoxy)phenyl)-3-(1-(4-methoxybut-2-enoyl)piperidin-3-yl)-1,5-dihydro-4H-pyrrolo[2,3-d]pyridazin-4-one]: 319 nM. Next, `CN(C)C/C=C/C(=O)N1CCC[C@@H](c2cn(-c3ccc(Oc4ccccc4)cc3)c3c(N)n[nH]c(=O)c23)C1` [Example 103, (S,E)-7-amino-3-(1-(4-(dimethylamino)but-2-enoyl)piperidin-3-yl)-1-(4-phenoxyphenyl)-1,5-dihydro-4H-pyrrolo[2,3-d]pyridazin-4-one]: 97 nM; `CN(C)C/C=C/C(=O)N1CCC[C@@H](c2cn(-c3ccc(Oc4ccccc4F)cc3)c3c(N)n[nH]c(=O)c23)C1` [Example 104, (S,E)-7-amino-3-(1-(4-(dimethylamino)but-2-enoyl)piperidin-3-yl)-1-(4-(2-fluorophenoxy)phenyl)-1,5-dihydro-4H-pyrrolo[2,3-d]pyridazin-4-one]: 151 nM; `CN1CC[C@@H]1/C=C/C(=O)N1CCC[C@@H](c2cn(-c3ccc(Oc4ccccc4)cc3)c3c(N)n[nH]c(=O)c23)C1` [Example 107, 7-amino-3-((S)-1-((E)-3-((R)-1-methylazetidin-2-yl)acryloyl)piperidin-3-yl)-1-(4-phenoxyphenyl)-1,5-dihydro-4H-pyrrolo[2,3-d]pyridazin-4-one]: 737 nM. Next, `CCN1CC[C@@H]1/C=C/C(=O)N1CCC[C@@H](c2cn(-c3ccc(Oc4ccccc4F)cc3)c3c(N)n[nH]c(=O)c23)C1` [Example 110, 7-amino-3-((S)-1-((E)-3-((R)-1-ethylazetidin-2-yl)acryloyl)piperidin-3-yl)-1-(4-(2-fluorophenoxy)phenyl)-1,5-dihydro-4H-pyrrolo[2,3-d]pyridazin-4-one]: 123 nM; `C=CC(=O)N1CC(c2cn(-c3ccc(Oc4ccccc4F)cc3)c3c(N)n[nH]c(=O)c23)C1` [Example 111, 3-(1-acryloylazetidin-3-yl)-7-amino-1-(4-(2-fluorophenoxy)phenyl)-1,5-dihydro-4H-pyrrolo [2,3-d]pyridazin-4-one]: 261 nM. Regarding `C=CC(=O)N1CCC(c2cn(-c3ccc(Oc4ccccc4)cc3)c3c(N)n[nH]c(=O)c23)CC1` [Example 112, 3-(1-acryloylpiperidin-4-yl)-7-amino-1-(4-phenoxyphenyl)-1,5-dihydro-4H-pyrrolo[2,3-d]pyridazin-4-one], the IC50 was 78 nM. This IC50 lies about 3.3-fold lower than the previous one. Next, `C=CC(=O)N1CCC(c2cn(-c3ccc(Oc4ccccc4F)cc3)c3c(N)n[nH]c(=O)c23)CC1` [Example 113, 3-(1-acryloylpiperidin-4-yl)-7-amino-1-(4-(2-fluorophenoxy)phenyl)-1,5-dihydro-4H-pyrrolo[2,3-d]pyridazin-4-one]: 161 nM. Next, `C=CC(=O)N1CC(c2cn(-c3ccc(Oc4ccccc4)cc3)c3c(N)n[nH]c(=O)c23)C1` [Example 114, 3-(1-acryloylazetidin-3-yl)-7-amino-1-(4-phenoxyphenyl)-1,5-dihydro-4H-pyrrolo[2,3-d] pyridazin-4-one]: 473 nM.

(Values after patent US10800785B2, “Substituted pyrrolo[2,3-d]pyridazin-4-ones and pyrazolo[3,4-d]pyridazin-4-ones as protein kinase inhibitors” (Shanghai Fochon Pharmaceutical Co., Ltd., priority 2016, dated 2020).)
